Key:
[1] = system: level of blood sugar; experiment: Anti-hyperglycemia activity (reduction of blood sugar level); type: in vivo, rat (Wistar, streptozotocin); details: oral, 300 mg/kg
Description: A group of Wistar rats to which at first streptozotocin was interperitoneally administered at a rate of 60 mg/kg and of which the positivity of glycosuria was confirmed after a week of the administration and to which regular insulin was further administered and of which the reduction of levels of glucose in urine and blood was once confirmed, however, of which hyperglycemia and hyperglycosuria were again confirmed after a few days was chosen and used as model animals of glycosuria in the following test. After orally administering each of the present compounds to the model animals at a dose of 300 mg/kg body weight, as a solution or dispersion in distilled water, the blood was collected two times, respectively after 3 and 6 hours of the administration.

[2] = system: Sarcoma-180; experiment: Anti-tumour activity against Sarcoma-180; type: in vivo, mouse (ICR-JCL); details: Mus musculus, Sarcoma-180, po, 600 h, 10 times every other day, tumour weight on 25th day, read-out: Antitumour activity, inhibiting rate (I.R.)
Description: Sarcoma-180 was transplanted into the axillary part of ICR-JCL mice at a rate of 1×10^6 cells/animal, and after 24 hours of transplantation, each of the present compounds as a solution or dispersion in sterilized physiological saline solution was orally administered to each of the transplanted mice 10 times every other day at a dose of 500 mg/kg/time. On 25th day of the transplantation, tumour node(s) were extirpated from all the mice to determine the weight of the tumour nodes.
Antitumour activity (activity of inhibiting the proliferation of the transplanted sarcoma) of each of the present compounds was derived by the following formula and shown in Table 6:
Antitumour activity (Inhibiting rate, I.R.)=(1-T/C)×100(%).
T represents the total weight of tumour nodes of the group of mice transplanted and administered with the present compound, and
C represents the total weight of tumour nodes of the group of mice transplanted, however, not administered with any agents.

[3] = system: exudation; experiment: Anti-exudation activity (air pouch, croton oil); type: in vivo, rat; details: Rattus norvegicus, po, 144 h, 5 days, read-out: I.R. against exudation
Description: Following the method of Baris et al. (1965), air was injected subcutaneously into the back of groups of rats, each group consisting of 6 animals to make an air pouch, and 0.5 ml of sesame oil containing 1% by weight of croton oil was injected into the air pouch. Each of the present compounds was orally administered forcibly to each of the groups of rats as a solution or dispersion in distilled water at a dose rate of 1000 mg/kg/day for continued five days. The amount of liquid exudated into the air pouch was measured on 6th day of the operation. The rate of inhibiting the exudation of the liquid was obtained by the same manner as in (5-2) and the results are shown also in Table 8.

[4] = in vivo; details: mouse, in vivo, po, mice, 7 days observation, read-out: LD50, acute oral toxicity
[5] = system: pyrexia (Saccharomyces cerevisiae); experiment: Anti-pyrexia activity (yeast-induced); type: in vivo; details: Rattus norvegicus, oral, read-out: Rate of inhibiting pyrexia (I.R.)
Description: Following the method of Winter et al. (1961), an aqueous dispersion of 20% by weight of Saccharomyces cerevisiae was subcutaneously injected into groups of rats, each group consisting of 6 animals, and after 10-hour fasting, 1000 mg/kg of each of the present compounds was orally administered to the rat as a solution of dispersion in distilled water, and then the rectal temperature of the rat was measured at a predetermined interval of time to find the lowest temperature.
The anti-pyrexia activity of each compound was obtained from the following formula: […]
Anti-pyrexia activity represented by the rate of inhibition (I.R.)
C2 represents the average rectal temperature of negative control (non-treatment), not injected with the yeast and not administered with the present compound,
C1 represents the average temperature of positive control, injected with the yeast and not administered with the compound and T represents the temperature of tested animals, injected with the yeast and administered with the present compound.

[6] = system: total cholesterol; experiment: Anti-hyperlipemia activity, total cholesterol in blood; type: in vivo, rabbit (Japanese white male); details: oral, 300 mg/kg once; for Reduction of cholesterol level after 3 hrs.: negative = raising
Description: (§1) Japanese white male rabbits were fed for 3 months with a solid diet containing 1% of cholesterol taken ad lib, and after confirming the raised lipid content of the serum of the rabbits, they were utilized as model animals suffering from experimental arteriosclerosis. Each of the present compounds was administered orally as a solution or dispersion in distilled water to the experimental animals of each group at a dose rate of 300 mg/kg once, and blood samples were taken at a predetermined time interval from the auricular vein of each animal. The content of cholesterol in the blood specimen was traced as the time passed by, with an enzymatic method, and the content of beta-lipoprotein in the same blood specimen was traced with a colorimetry. Each value in Table 7 is the difference between the level just before administration and the level after 3 or 6 hours of the administration.

[7] = system: beta-lipoprotein; experiment: Anti-hyperlipemia activity, beta-lipoprotein in blood; type: in vivo, rabbit (Japanese white male); details: oral, 300 mg/kg once
Description: as §1

[8] = system: cotton pellet granuloma; experiment: Anti-granuloma activity (cotton pellet); type: in vivo, rat; details: Rattus norvegicus, po, 192 h, 7 days, read-out: I.R. against cotton pellet edema
Description: Following the method of Winter et al. (1963), each two cotton wool pellets, each weighing 30±1 mg, were implanted into the back of each rats of groups of rats, each group consisting of 6 animals, at the positions of mutually symmetrical concerning the median line of the rat. To these groups of the thus operated rats, the present compounds were respectively administered orally and forcibly as a solution or dispersion in distilled water for 7 continuous days, once a day at a dose of 1000 mg/kg/day. On 8th day of the implantation, the granuloma was extirpated and the dry weight of the granuloma was measured, the rate of inhibiting the proliferation of granuloma being obtained as in (5-1) being shown in Table 8.

[9] = system: pseudo-escaping reaction to tail pressure; experiment: Analgetic activity against mechanical stimulation of pressure; type: in vivo, mouse (ICR female); details: oral, 1000 mg/kg
[10] = system: blood pressure; experiment: Anti-hypertension activity (reduction of blood pressure); type: in vivo, rat (spontaneous hypertension); details: oral, 300 mg/kg
Description: Rats of spontaneous hypertension were orally administered with each of the present compounds as a solution or dispersion in distilled water at a dose rate of 300 mg/kg body weight. After 3 and 6 hours of the administration, the blood pressure of each rat was determined, and the difference between the above-determined value and the value just before the administeration was used as the index of the activity of reducing the blood pressure of the compound.

[11] = system: acetic acid writhing; experiment: Analgetic activity against chemical stimulation of acetic acid (writhing); type: in vivo, mouse (ICR female); details: Mus musculus, po, 30 min before 0.6% acetic acid, read-out: I.R. of writhing
From the text: (§2) Rate of inhibition (I.R.) (%)=(1-T/C)×100
T represents the average number of writhing of the group of mice administered with the present compound and injected with acetic acid, and C represents the average number of writhing of the group of mice only injected with acetic acid (control).

[12] = system: carrageenin edema; experiment: Anti-Carrageenin edema activity; type: in vivo, rat; details: Rattus norvegicus, po, 1000 mg/kg once, read-out: I.R. against carrageenin edema
Description: After orally administering each of the present compounds forcibly to each group of rats, composed of 10 animals, as a solution or dispersion in distilled water at a dose of 1000 mg/kg once, 0.1 ml of an aqueous dispersion of 1% carrageenin in aqueous physiological saline solution was injected into the foot pad of the right hind leg of the administered animal following Van Arman et al. (1963). Thereafter, the thickness of the foot pad was measured at a time interval to find the rate of inhibiting of the swelling of the foot pad according to the following formula:
as §2
T means the average volume of the foot pad of the animals administered with one of the present compounds and carrageenin, and
C means that of the animal not administered with the present compound, however, administered with carrageenin.

| SMILES | Reduced level of blood sugar after 3 hrs. [1] [mg/dL] | Reduced level of blood sugar after 6 hrs. [1] [mg/dL] | inhibition in vivo at 500 mg/kg [2] [%] | inhibition in vivo at 1000 mg/kg/day [3] [%] | LD50 at 168 h [4] [mg/kg] | inhibition in vivo at 1000 mg/kg [5] [%] | Reduction of cholesterol level after 3 hrs. [6] [mg/dL] | Reduction of cholesterol level after 6 hrs. [6] [mg/dL] | Reduction of beta-lipoprotein level after 3 hrs. [7] [mg/dL] | Reduction of beta-lipoprotein level after 6 hrs. [7] [mg/dL] | inhibition in vivo at 1000 mg/kg/day [8] [%] | Pseudo-escapting reaction pressure [9] [mmHg] | Pseudo-escapting reaction time [9] [s] | Reduced level of blood pressure after 3 hrs. [10] [mm Hg] | Reduced level of blood pressure after 6 hrs. [10] [mm Hg] | inhibition in vivo at 1000 mg/kg [11] [%] | inhibition in vivo at 1000 mg/kg [12] [%] |
| --- | --- | --- | --- | --- | --- | --- | --- | --- | --- | --- | --- | --- | --- | --- | --- | --- | --- |
| O=C(Oc1ccccc1)c1ccc(NC2O[C@H](CO)[C@@H](O[C@H]3O[C@H](CO)[C@@H](O[C@H]4O[C@H](CO)[C@@H](O)[C@H](O)[C@H]4O)[C@H](O)[C@H]3O)[C@H](O)[C@H]2O)cc1 (stereo partly shown) [Compound 10, phenyl p-aminobenzoate-N-maltotrioside] | 99 | 106 | 39 | 7.5 | 12400 | 41 | -5 | 33 | 106 | 111 | 19.6 | 86 | 36 | 18 | 18 | 30 | 6.6 |
| O=C(OCc1ccccc1)c1ccc(NC2(CO)OC[C@@H](O)[C@@H](O)[C@@H]2O)cc1 (stereo partly drawn) [Compound 15, benzyl p-aminobenzoate-N-D-fructoside] | 72 | 85 | 43 | 7.5 | 11000 | 26 | -1 | 45 | 150 | 154 | 9 | 78 | 37 | 18 | 20 | 19 | 30.8 |
| O=C(Oc1ccccc1)c1ccc(NC2O[C@H](CO)[C@@H](O[C@@H]3O[C@H](CO)[C@@H](O)[C@H](O)[C@H]3O)[C@H](O)[C@H]2O)cc1 (stereo partly shown) [Compound 9, phenyl p-aminobenzoate-N-cellobioside] | 85 | 121 | 40 | 18.8 | > 15000 | 32 | -1 | 40 | 126 | 136 | 7.9 | 86 | 38 | 25 | 28 | 28 | 3.7 |
| O=C(Oc1ccccc1)c1cccc(NC2O[C@H](CO)[C@@H](O)[C@H](O)[C@@H]2O)c1 (stereo partly drawn) [Compound 7, phenyl m-aminobenzoate-N-D-mannoside] | 144 | 159 | 49 | 7.5 | 14800 | 31 | -2 | 62 | 141 | 150 | 25.3 | 95 | 44 | 24 | 26 | 46 | 5.9 |
| O=C(OCc1ccccc1)c1ccc(NC2O[C@H](CO)[C@@H](O)[C@H](O)[C@H]2O)cc1 (stereo partly drawn) [Compound 14, benzyl p-aminobenzoate-N-D-glucoside] | 65 | 93 | 42 | 6.9 | 11700 | 56 | 3 | 38 | 143 | 146 | 23.3 | 92 | 44 | 24 | 24 | 39 | 5.1 |
